Reference: patent publication US20200261534A1, “NEW TREATMENTS OF MULTIPLE MYELOMA” (priority 2017, published 2020)
Where two headings read alike, the source gives them in different places. Values belong to the compound of their own block, whether it stands above or below them. Starred links: 1 amine or outer side, 2 acyl side, 3 side chain; linkers in the order of their positions; H or OH if unused. Positions of bridges follow the written chain, without caps; N, C: chain ends. Non-standard residues stand in square brackets, D forms with d. Residues, ends and D or L forms follow the SMILES beside them. No end group written: not given here. ξ: configuration not given here. ξαMeNle(6-ylidene) = CC(CCCC=[*:3])(N[*:1])C(=O)[*:2]; X1 = CC(CCCCCCC=[*:3])(N[*:1])C(=O)[*:2]

Experiments:
Assay type in all cases: cell-based
[1] = tested on: MM.1S, B Lymphoblast (multiple myeloma); assay: MTT viability assay, MM.1S
Protocol: MM.1S, B Lymphoblast (multiple myeloma), ATCC: CRL-2974
(§1) Cell lines A549, MCF-7 and RAMOS were cultured in incubator under CO2 (6%) at 37° C. in DMEM high glucose (Dulbecco's Modified Eagle Solution, Gibco-BRL 31966-21) medium with 10% fetal bovine serum inactivated (FBS) (Gibco-BRL 10106-169). Cell lines HL-60 and MM.1S were cultured in incubator at 37° C. in RPMI-1640 (Sigma R8758) medium with 10% of fetal bovine serum inactivated (FBS) and 2 mM glutamine (Sigma G7513). Cell lines BJ were cultured in incubator under CO2 (6%) at 37° C. in Eagle's Minimum Essential Medium (Sigma, M-2279) with 10% fetal bovine serum inactivated (FBS) (Gibco-BRL 10106-169).
(§2) During the amplification step and the assays adherent cells were rinsed with DPBS (Dulbecco's Phosphate Buffered Saline, Sigma D1283) three times and afterward treated for 5 minutes with trypsin ([…]) (Gibco-BRL, 15400054) in solution of DPBS at 37° C., and, once detached, transferred in the culturing medium. No-adherent cells were centrifuged and transferred in the culturing medium. Cells were counted in a Neubauer chamber after labelling with Tripan-Blue.
Cells were seeded at a density of 10000 cells/well in 100 μl of medium in 96 well plates. After 24 h, the compounds to be tested were added to calculate the dose/response curve at the starting concentration of 100 μM with serial dilutions (1:1). Controls are the untreated cells. Each experiment was performed in triplicate.
(§3) Cells were incubated with the compounds at the indicated concentrations during 24-72 h in incubator under CO2 atmosphere at 37° C. Then, cell viability was measured by means of MTT (3-(4,5-dimethylthiazol-2-yl)-2,5-diphenyltetrazolium bromide) assay. Stock solution of MTT (475989 Calbiochem) was 5 mg/ml in PBS. 1×.10 μl/well of MTT solution were added and the plate was incubated for 3-4 hr. The medium was discarded and 100 μl of extracting buffer (PBS 1×, 15% SDS, 50% […] N,N-Dimethylformamide, pH 4.7) were added to each well. Plates were incubated for 16 h at room temperature under orbital shaking. Absorbance at 570 nm was finally measured. As negative control (experiment noise) 3 wells were treated with 20 μl/well of a solution of SDS 10% in H2O.
(§4) Data analysis was performed calculating the percentage of cell viability normalized vs. the values of negative control, which was considered equal to 100%. The dose/response curve was fitted through the sigmoidal equation dose-response (variable slope) and the IC50 values were calculated as follow:
Y=Bottom+(Top−Bottom)/(1+10^{[(LogIC50−X)*HillSlope]},
All cell lines were cultured in incubator at 37° C. in RPMI-1640 (Sigma R8758) medium with 10% of fetal bovine serum inactivated (FBS) and 2 mM glutamine (Sigma G7513). During the amplification step cells were centrifuged and transferred into the culturing medium. Cells were counted in a Neubauer chamber after labelling with Tripan-Blue.
as §3, with “peptidomimetic compound (S09)” for “compounds”
Cell lines A549 and MBA-MD231 were cultured in incubator under CO2 (6%) at 37° C. in DMEM high glucose (Dulbecco's Modified Eagle Solution, Gibco-BRL 31966-21) medium with 10% fetal bovine serum inactivated (FBS) (Gibco-BRL 10106-169). […]

[2] = tested on: RAMOS, B lymphocyte (Burkitt's Lymphoma); assay: MTT viability assay, RAMOS
Protocol: RAMOS, B lymphocyte (Burkitt's Lymphoma), ATCC: CRL-1596 […] During the amplification step and the assays adherent cells were rinsed with DPBS (Dulbecco's Phosphate Buffered Saline, Sigma D1283) three times and afterward treated for 5 minutes with trypsin ([…]) (Gibco-BRL, 15400054) in solution of DPBS at 37° C., and, once detached, transferred in the culturing medium. No-adherent cells were centrifuged and transferred in the culturing medium. Cells were counted in a Neubauer chamber after labelling with Tripan-Blue. […] Cells were seeded at a density of 10000 cells/well in 100 μl of medium in 96 well plates. […] Controls are the untreated cells. Each experiment was performed in triplicate. Cells were incubated with the compounds at the indicated concentrations during 24-72 h in incubator under CO2 atmosphere at 37° C. […] Stock solution of MTT (475989 Calbiochem) was 5 mg/ml in PBS. 1×.10 μl/well of MTT solution were added and the plate was incubated for 3-4 hr. […] Plates were incubated for 16 h at room temperature under orbital shaking. Absorbance at 570 nm was finally measured. […] The dose/response curve was fitted through the sigmoidal equation dose-response (variable slope) and the IC50 values were calculated as follow: Y=Bottom+(Top−Bottom)/(1+10^{[(LogIC50−X)*HillSlope]},

[3] = tested on: A549, epithelial (lung cancer); assay: MTT viability assay, A549
Protocol: A549, epithelial (lung cancer), ATCC: CCL-185
as §1
as §2, with “Tripan-Blue. […]” for “Tripan-Blue.”
as §3
as §4, with “follow: […]” for “follow:”

[4] = MM.1S, same protocol as Example 2, Table 6, read-out: Compound (IC50)
[5] = Ramos, same protocol as Example 2, Table 6, read-out: Compound (IC50)
[6] = A549, same protocol as Example 2, Table 6, read-out: Compound (IC50)

Compound: CC[C@H](C)[C@@H]1NC(=O)[C@H](Cc2ccc(O)cc2)NC(=O)[C@H](C)NC(=O)[C@H]([C@@H](C)O)NC(=O)[C@H](C)NC(=O)C(C)(NC(=O)[C@H](CCCCN)NC(=O)[C@H](CC(C)C)NC(=O)[C@@H](NC(=O)[C@@H](NC(=O)[C@@H](NC(=O)[C@H](CCCCN)NC(=O)[C@@H]2CCCN2C(=O)[C@H](C)N)C(C)C)C(C)C)[C@@H](C)CC)CCCCCCC=CCCCC(C)(C(=O)N[C@H](C(=O)O)C(C)C)NC(=O)[C@H](CC(C)C)NC1=O (stereo partly shown) [IDP-S23, APKVVILKXATAYILXV] (H-APKVVILK[X1]ATAYIL[ξαMeNle(6-ylidene)]V-OH; staple 9-16)
IC50 [1, 4]: > 100 µM | IC50 [2, 5]: > 100 µM | IC50 [3, 6]: > 100 µM

Compound: CC[C@H](C)[C@H](NC(=O)[C@H](Cc1ccc(O)cc1)NC(=O)[C@H](C)NC(=O)C1(C)CCCC=CCCCCCCC(C)(NC(=O)[C@H](CCCCN)NC(=O)[C@@H]2CCCN2C(=O)[C@H](C)N)C(=O)N[C@@H](C(C)C)C(=O)N[C@@H]([C@@H](C)CC)C(=O)N[C@@H](CC(C)C)C(=O)N[C@@H](CCCCN)C(=O)N[C@@H](CCCCN)C(=O)N[C@@H](C)C(=O)N1)C(=O)N[C@@H](CC(C)C)C(=O)N[C@@H](CO)C(=O)O (stereo partly shown) [S09, APKXVILKKAXAYILS—OH] (H-APK[X1]VILKKA[ξαMeNle(6-ylidene)]AYILS-OH; staple 4-11; N-terminus assumed)
IC50 ([1]; MM1S, MTT, 24-72 h, Table 7, read-out: IC50 values in μM for S09): 7.5 µM | IC50 ([1]; MM.1S, MTT, incubation 24-72 h, Table 3, read-out: IC50 values): ~6.2 µM | IC50 [1, 4]: ~6.2 µM | IC50 ([2]; Ramos, MTT, incubation 24-72 h, Table 3, read-out: IC50 values): ~28 µM | IC50 [2, 5]: ~28 µM | IC50 ([3]; A549, MTT, 24-72 h, Table 12, read-out: IC50 values): 6.3 ± 0.5 µM | IC50 ([3]; A549, MTT, incubation 24-72 h, Table 3, read-out: IC50 values): 9.4 ± 4.1 µM | IC50 [3, 6]: 9.4 ± 4.1 µM

Compound: CC[C@H](C)[C@H](NC(=O)[C@H](Cc1ccc(O)cc1)NC(=O)[C@H](C)NC(=O)C1(C)CCCC=CCCCCCCC(C)(NC(=O)[C@H](CCCCN)NC(=O)[C@@H]2CCCN2C(=O)[C@H](C)N)C(=O)N[C@@H](C(C)C)C(=O)N[C@@H]([C@@H](C)CC)C(=O)N[C@@H](Cc2ccccc2)C(=O)N[C@@H](CCCCN)C(=O)N[C@@H](CCCCN)C(=O)N[C@@H](C)C(=O)N1)C(=O)N[C@@H](CC(C)C)C(=O)N[C@@H](CO)C(=O)O (stereo partly shown) [S14, APKXVIFKKAXAYILS—OH] (H-APK[X1]VIFKKA[ξαMeNle(6-ylidene)]AYILS-OH; staple 4-11; N-terminus assumed)
IC50 [1]: 6.6 ± 0.9 µM | IC50 ([1]; 24 h): 7 µM | IC50 ([1]; 72 h): 7 µM | IC50 [2]: 55 µM | IC50 [3]: 9.1 ± 0.8 µM

IC50 [1]: > 100 µM | IC50 [2]: > 100 µM | IC50 [3]: > 100 µM
Compound: RQIKIWFQNRRMKWKKNELKRAFAALRDQI [Int-HI-S6A-F8, reference compound]
